Molecules are shown by their SMILES. pIC50: −log10 of the molar value.

Test [1] addresses T1, MMP-3 (Homo sapiens, UniProt P08254).
T1 construct: Truncated Prostromelysin-257 was expressed in a soluble form in E.coli; made in house; host or cells: E. coli
Put plainly: Primary Thiopeptilide MMP-3 Inhibition Assay. The conditions noted are these: for pIC50: pH 6.5, 13 nM stromelysin, x (n) = average of n determinations, read-out: MMP-3 Thiopep. IC50; for inhibition at 5 µM: read-out: MMP-3 Thiopep. % inhibition. In kind it is biochemical.
Procedure: Enzyme: recombinant stromelysin expressed in E.coli and purified as described above. […] The protocols for the assay of compounds as stromelysin inhibitors was the same as that used for MMP-9 except that the assay buffer was 50 mM MES, pH 6.5 containing 150 mM NaCl, 10 mM CaCl2, 0.005% Brij, and 1% DMSO.

For test [2], the target named is T2, MMP-9 (Homo sapiens, UniProt P14780).
T2 construct: from tissue; host or cells: human polymorphonuclear leukocytes (PMN) from whole blood (New York Blood Center), PMA-stimulated supernatant
T2 sequence (P14780 107-707 limits assumed): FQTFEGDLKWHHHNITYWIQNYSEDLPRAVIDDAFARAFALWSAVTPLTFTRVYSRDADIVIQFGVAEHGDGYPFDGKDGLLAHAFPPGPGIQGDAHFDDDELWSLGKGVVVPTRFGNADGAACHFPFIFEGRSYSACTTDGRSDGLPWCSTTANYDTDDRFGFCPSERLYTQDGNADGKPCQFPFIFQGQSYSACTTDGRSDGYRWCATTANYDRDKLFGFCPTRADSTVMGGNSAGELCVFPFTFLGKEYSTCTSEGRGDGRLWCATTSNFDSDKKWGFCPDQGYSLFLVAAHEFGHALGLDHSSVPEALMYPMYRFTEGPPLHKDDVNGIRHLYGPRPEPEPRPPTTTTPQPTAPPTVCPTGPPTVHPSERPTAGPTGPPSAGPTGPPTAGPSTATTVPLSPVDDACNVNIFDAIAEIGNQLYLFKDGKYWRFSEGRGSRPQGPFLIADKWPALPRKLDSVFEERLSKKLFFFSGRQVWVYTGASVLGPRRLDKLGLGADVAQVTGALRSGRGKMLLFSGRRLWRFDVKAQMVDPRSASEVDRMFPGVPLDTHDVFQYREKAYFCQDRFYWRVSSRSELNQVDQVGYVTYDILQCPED
Put plainly: Thiopeptilide MMP-9 Inhibition Assay. The format is biochemical. Particulars: for pIC50: pH 6.5, x (n) = average of n determinations, read-out: MMP-9: Thiopep. IC50; for inhibition at 5 µM: read-out: MMP-9: Thiopep. % inhibition.

T1 sequence (P08254 100-274 limits assumed): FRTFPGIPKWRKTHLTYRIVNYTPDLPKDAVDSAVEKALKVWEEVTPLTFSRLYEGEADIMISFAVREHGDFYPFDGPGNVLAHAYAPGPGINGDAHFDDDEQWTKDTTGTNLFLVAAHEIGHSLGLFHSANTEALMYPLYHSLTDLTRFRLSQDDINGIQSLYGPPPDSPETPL

As for `O=C(CC(CSc1ccc(Cl)cc1)C(=O)O)c1ccc(-c2ccc(Cl)cc2)cc1` (stereo not drawn) [Example 209, [1,1'-Biphenyl]-4-butanoic acid, 4'-chloro-α-[[(4-chlorophenyl)thio]methyl]-γ-oxo-], the negative logarithm of the IC50 (pIC50) (usually the IC50 on a negative log10 scale, so that one unit is a factor of ten) was 6.47 in test [1] and 6.41 in test [2].

For `C=C(CC(=O)c1ccc(-c2ccc(Cl)cc2)cc1)C(=O)O` [Example 23, [1,1'-Biphenyl]-4-butanoic acid, 4'-chloro-α-methylene-γ-oxo-, reference compound], the values for the inhibition at 5 µM in test [1] and in test [2] were 24% and 0%, respectively.

Consider `O=C(CC(CCCCCc1ccccc1)C(=O)O)c1ccc(-c2ccc(Cl)cc2)cc1` (stereo not drawn) [Example 180, [1,1'-Biphenyl]-4-butanoic acid, 4'-chloro-γ-oxo-α-(5-phenylpentyl)-], for which the pIC50 in test [1] was 6.57; in test [2], 6.44.

As to `COc1ccc(-c2ccc(C(=O)CC(CCCc3ccccc3)C(=O)O)cc2)cc1` (stereo not drawn) [Example 73, [1,1'-Biphenyl]-4-butanoic acid, 4'-methoxy-γ-oxo-α-(3-phenylpropyl)-], the values for the negative logarithm of the IC50 (pIC50) in test [1] and in test [2] were 6.66 and 6.22, respectively.

As for `CC1=CC[C@@H](C(=O)c2ccc(-c3ccc(Cl)cc3)cc2)[C@H](C(=O)O)C1` (relative stereo) [Example 329, 3-Cyclohexene-1-carboxylic acid, 6-[(4'-chloro[1,1'-biphenyl]-4-yl)carbonyl]-3-methyl-, trans-], the inhibition (as a rule, the percentage by which the read-out fell short of the control) at 5 µM in test [1] turned out to be 58%. The negative logarithm of the IC50 (pIC50) in test [2] was 5.10.

Take `Cc1ccccc1SCC(CC(=O)c1ccc(-c2ccc(Cl)cc2)cc1)C(=O)O` (stereo not drawn) [Example 232, [1,1'-Biphenyl]-4-butanoic acid, 4'-chloro-α-[[(2-methylphenyl)thio]methyl]-γ-oxo-]: the negative logarithm of the IC50 (pIC50) in test [1] is 6.82; in test [2] it was 6.70.

For the compound `O=C(CC(CSCc1ccccc1)C(=O)O)c1ccc(-c2ccc(Cl)cc2)cc1` (stereo not drawn) [Example 203, [1,1'-Biphenyl]-4-butanoic acid, 4'-chloro-γ-oxo-α-[[(phenylmethyl)thio]methyl]-], the negative-log IC50 (pIC50) in test [1] was 6.61; in test [2] it was 5.92.

Consider `O=C(O)CCC(CCCc1ccccc1)C(=O)c1ccc(-c2ccc(Cl)cc2)cc1` (centres unmarked) [Example 343, [1,1'-Biphenyl]-4-pentanoic acid, 4'-chloro-δ-oxo-γ-(phenylpropyl)-], for which the pIC50 in test [1] was 6.30; in test [2] it was 6.17.

Regarding `CCc1ccccc1SCC(CC(=O)c1ccc(-c2ccc(Cl)cc2)cc1)C(=O)O` (stereo not drawn) [Example 220, [1,1'-Biphenyl]-4-butanoic acid, 4'-chloro-α-[[(2-ethylphenyl)thio]methyl]-γ-oxo-], the pIC50 in test [1] was 6.72; in test [2], 6.02.

On to `O=C(O)CCC1(C(=O)c2ccc(-c3ccc(Cl)cc3)cc2)CCCC1` [Example 340, Cyclopentanepropanoic acid, 1-[(4'-chloro[1,1'-biphenyl]-4-yl)carbonyl]-], for which the values for the inhibition at 5 µM in test [1] and in test [2] were 14% and 21%, respectively.

On to `O=C(CC(CSCCCc1ccccc1)C(=O)O)c1ccc(-c2ccc(Cl)cc2)cc1` (stereo not drawn) [Example 207, [1,1'-Biphenyl]-4-butanoic acid, 4'-chloro-γ-oxo-α-[[(3-phenylpropyl)thio]methyl]-], for which the pIC50 is 6.74 in test [1] and 6.54 in test [2].

Take `C=C(CC(=O)c1ccc(C)cc1)C(=O)O` [Example 28, Benzenebutanoic acid, 4-methyl-α-methylene-γ-oxo-, reference compound]: the inhibition at 5 µM in test [1] stood at 14%; in test [2], 0%.

For `CCc1ccc(-c2ccc(C(=O)CC(CC(C)C)C(=O)O)cc2)cc1` (stereo not drawn) [Example 16, [1,1'-Biphenyl]-4-butanoic acid, 4'-ethyl-α-(2-methylpropyl)-γ-oxo-], the negative-log IC50 (pIC50) was 6.21 in test [1] and 5.51 in test [2].

In the case of `O=C(O)[C@H]1[C@@H](Sc2ccccc2)CC[C@@H]1C(=O)c1ccc(-c2ccc(Cl)cc2)cc1` (relative stereo) [Example 295], the pIC50 in test [1] was 7.00; in test [2], 6.22.

`CC(C)CC(CC(=O)c1ccc(-c2ccc(F)cc2F)cc1)C(=O)O` (stereo not drawn) [Example 20, [1,1'-Biphenyl]-4-butanoic acid, 2',4'-difluoro-α-(2-methylpropyl)-γ-oxo-]: the results for the inhibition at 5 µM in test [1] and in test [2] were 32% and 34%, respectively.

As for `C=CCC(CC(=O)c1ccc(-c2ccc(Cl)cc2)cc1)C(=O)O` (stereo not drawn) [Example 119, [1,1'-Biphenyl]-4-butanoic acid, 4'-chloro-γ-oxo-α-2-propenyl-], the negative logarithm of the IC50 (pIC50) in test [1] is 6.12; in test [2], 5.74.

For the compound `O=Cc1ccc(-c2ccc(C(=O)CC(CCCc3ccccc3)C(=O)O)cc2)cc1` (stereo not drawn) [Example 78, [1,1'-Biphenyl]-4-butanoic acid, 4'-formyl-γ-oxo-α-(3-phenylpropyl)-], the pIC50 was 6.51 in test [1] and 5.92 in test [2].

For `CC(C)(C)OC(=O)Nc1ccc(-c2ccc(C(=O)CC(CCCc3ccccc3)C(=O)O)cc2)cc1` (stereo not drawn) [Example 47, [1,1'-Biphenyl]-4-butanoic acid, 4'-[[(1,1-dimethylethoxy)carbonyl]amino]-γ-oxo-α-(3-phenylpropyl)-], the negative-log IC50 (pIC50) in test [1] was 6.25. In test [2], the inhibition at 5 µM is 22%.

`CCCCCc1ccc(-c2ccc(C(=O)CC(CC(C)C)C(=O)O)cc2)cc1` (stereo not drawn) [Example 22, [1,1'-Biphenyl]-4-butanoic acid, α-(2-methylpropyl)-γ-oxo-4'-pentyl-]: the negative-log IC50 (pIC50) in test [1] is 6.10; in test [2], 5.92.

With `O=C(c1ccc(-c2ccc(Cl)cc2)cc1)[C@H]1CCCC[C@H]1C(=O)O` (relative stereo) [Example 286, Cyclohexanecarboxylic acid, 2-[(4'-chloro[1,1'-biphenyl]-4-yl)carbonyl]-, trans-], the inhibition at 5 µM in test [1] amounted to 19%; in test [2], 0%.

As to `COc1ccc(-c2ccc(C(=O)CC(CC(C)C)C(=O)O)cc2)cc1` (stereo not drawn) [Example 19, [1,1'-Biphenyl]-4-butanoic acid, 4'-methoxy-α-(2-methylpropyl)-γ-oxo-], the negative logarithm of the IC50 (pIC50) in test [1] is 6.26; in test [2] it was 5.92.

As to `N#Cc1ccc(-c2ccc(C(=O)CC(CCCc3ccccc3)C(=O)O)cc2)cc1` (stereo not drawn) [Example 56, [1,1'-Biphenyl]-4-butanoic acid, 4'-cyano-γ-oxo-α-(3-phenylpropyl)-], the values for the pIC50 in test [1] and in test [2] were 6.51 and 6.15, respectively.

`O=C(O)CCCC(=O)c1ccc(-c2ccc(Cl)cc2)cc1` [Example 333, [1,1'-Biphenyl]-4-pentanoic acid, 4'-chloro-δ-oxo-, reference compound]: the inhibition at 5 µM in test [1] came to 62%; in test [2], 25%.

For the compound `C=Cc1ccc(-c2ccc(C(=O)CC(CCCc3ccccc3)C(=O)O)cc2)cc1` (stereo not drawn) [Example 55, [1,1'-Biphenyl]-4-butanoic acid, 4'-ethenyl-γ-oxo-α-(3-phenylpropyl)-], the pIC50 in test [1] is 6.77; in test [2], 6.96.

As to `CCCCOc1ccc(-c2ccc(C(=O)CC(CCCc3ccccc3)C(=O)O)cc2)cc1` (stereo not drawn) [Example 89, [1,1'-Biphenyl]-4-butanoic acid, 4'-butoxy-γ-oxo-α-(3-phenylpropyl)-], the negative logarithm of the IC50 (pIC50) in test [1] was 6.95; in test [2], 6.32.

Take `CC(C)CC(CC(=O)c1ccc(-c2ccccc2F)cc1)C(=O)O` (stereo not drawn) [Example 17, [1,1'-Biphenyl]-4-butanoic acid, 2'-fluoro-α-(2-methylpropyl)-γ-oxo-]: the inhibition at 5 µM came out at 35% in test [1] and 0% in test [2].

Regarding `COc1ccc(SCC(CC(=O)c2ccc(-c3ccc(Cl)cc3)cc2)C(=O)O)cc1` (stereo not drawn) [Example 206, [1,1'-Biphenyl]-4-butanoic acid, 4'-chloro-α-[[(4-methoxyphenyl)thio]methyl]-γ-oxo-], the pIC50 was 6.02 in test [1] and 6.38 in test [2].

As for `COc1ccc(CCC(CC(=O)c2ccc(-c3ccc(Cl)cc3)cc2)C(=O)O)cc1` (stereo not drawn) [Example 187, [1,1'-Biphenyl]-4-butanoic acid, 4'-chloro-α-[2-(4-methoxyphenyl)ethyl]-γ-oxo-], the negative-log IC50 (pIC50) in test [1] is 6.12; in test [2] it was 5.82.

For the compound `CSCCCC(CC(=O)c1ccc(-c2ccc(Cl)cc2)cc1)C(=O)O` (stereo not drawn) [Example 266, [1,1'-Biphenyl]-4-butanoic acid, 4'-chloro-α-[3-(methylthio)propyl]-γ-oxo-], the pIC50 is 6.60 in test [1] and 6.19 in test [2].

Consider `O=C(CC(CC#Cc1ccccc1)C(=O)O)c1ccc(-c2ccc(Cl)cc2)cc1` (stereo not drawn) [Example 189, [1,1'-Biphenyl]-4-butanoic acid, 4'-chloro-γ-oxo-α-(3-phenyl-2-propynyl)-], for which the pIC50 was 6.28 in test [1] and 6.22 in test [2].

On to `O=C(CC(CCCc1ccccc1)C(=O)O)c1ccc(-c2ccsc2)cc1` (stereo not drawn) [Example 76, Benzenepentanoic acid, α-[2-oxo-2-[4-(3-thienyl)phenyl]ethyl]-], for which the figures for the negative-log IC50 (pIC50) in test [1] and in test [2] were 6.00 and 5.74, respectively.

Regarding `Cc1ccccc1S[C@@H]1CC[C@H](C(=O)c2ccc(-c3ccc(Cl)cc3)cc2)[C@H]1C(=O)O` (relative stereo) [Example 304, Cyclopentanecarboxylic acid, 2-[(4'-chloro[1,1'-biphenyl]-4-yl)carbonyl]-5-[(2-methylphenyl)thio]-, (1α,2β,5α)-], the pIC50 in test [1] was 7.26; in test [2], 7.38.

As for `O=C(CC(Sc1ccccc1)C(=O)O)c1ccc(-c2ccc(Cl)cc2)cc1` (stereo not drawn) [Example 251, [1,1'-Biphenyl]-4-butanoic acid, 4'-chloro-γ-oxo-α-(phenylthio)-], the values for the pIC50 in test [1] and in test [2] were 6.19 and 5.12, respectively.

For the compound `CC(C)SCC(CC(=O)c1ccc(-c2ccc(Cl)cc2)cc1)C(=O)O` (stereo not drawn) [Example 239, [1,1'-Biphenyl]-4-butanoic acid, 4'-chloro-α-[[(1-methylethyl)thio]methyl]-γ-oxo-], in test [1], the negative logarithm of the IC50 (pIC50) is 6.31. Further, the inhibition at 5 µM in test [2] was 53%.

For the origin of these results see patent US5789434A, “Derivatives of substituted 4-biarylbutyric acid as matrix metalloprotease inhibitors” (priority 1995, dated 1998).
